Measured values: ChEMBL document CHEMBL6127083, “A mini-review on integrase inhibitors: The cornerstone of next-generation HIV treatment” (Eur J Med Chem, 2024)

How the values were obtained:
[1] = system: Human immunodeficiency virus 1; assay: Antiviral activity against HIV-1 IIIB infected in human MT2 cells assessed as reduction in virus induced cytopathic effect incubated overnight by ELISA method; format: functional, organism-based; conditions: Human immunodeficiency virus 1, 3B
[2] = target: T1, Human immunodeficiency virus type 1 integrase (Human immunodeficiency virus 1, UniProt Q7ZJM1); assay: Inhibition of HIV-1 integrase
[3] = target: T1, Human immunodeficiency virus type 1 integrase; assay: Inhibition of HIV-1 integrase strand transfer activity
[4] = system: Human immunodeficiency virus 1; assay: Antiviral activity against HIV1 IIIB harboring E138K mutant infected in MT4 cells assessed as reduction in virus induced cytopathic effect incubated for 5 days by MTT assay; format: functional, organism-based; conditions: Human immunodeficiency virus 1, IIIB, MT4, 120 h
[5] = system: Human immunodeficiency virus 1; assay: Antiviral activity against HIV1 IIIB harboring N155H mutant infected in MT4 cells assessed as reduction in virus induced cytopathic effect incubated for 5 days by MTT assay; format: functional, organism-based; conditions: Human immunodeficiency virus 1, IIIB, MT4, 120 h
[6] = system: Human immunodeficiency virus 1; assay: Antiviral activity against HIV1 IIIB harboring S230N mutant infected in MT4 cells assessed as reduction in virus induced cytopathic effect incubated for 5 days by MTT assay; format: functional, organism-based; conditions: Human immunodeficiency virus 1, IIIB, MT4, 120 h
[7] = Inhibition of wild type HIV integrase strand transfer activity; parameters: species or system Human immunodeficiency virus
[8] = Cytotoxicity against human TZM-bl cells assessed as reduction in cell viability incubated for 48 hrs by MTT assay; format: toxicity, cell-based
[9] = target: T1, Human immunodeficiency virus type 1 integrase; assay: Inhibition of HIV-1 integrase incubated for 30 mins by strand transfer activity
[10] = system: Human immunodeficiency virus 1; assay: Antiviral activity against HIV-1 3B infected in human MT4 cells assessed as reduction in virus-induced cytopathic effect measured for 5 days by MTT assay; format: functional, organism-based; conditions: Human immunodeficiency virus 1, 3B, MT4, 120 h
[11] = system: Human immunodeficiency virus 1; assay: Antiviral activity against HIV1 harboring E138K mutant infected in MT4 cells assessed as reduction in virus induced cytopathic effect incubated for 5 days by MTT method; format: functional, organism-based; conditions: Human immunodeficiency virus 1, MT4, 120 h
[12] = target: Human immunodeficiency virus type 1 integrase (Human immunodeficiency virus 1) (UniProt Q7ZJM1); assay: Inhibition of HIV-1 integrase at 20 uM relative to control
[13] = Oral bioavailability in rat at 2 mg/kg by LC-MS/MS analysis; format: ADME, organism-based; conditions: in vivo
[14] = target: Human immunodeficiency virus type 1 reverse transcriptase (Human immunodeficiency virus 1, UniProt Q72547); assay: Inhibition of recombinant HIV-1 reverse transcriptase associated RNase H extracted from Escherichia coli BL21 (DE3) by microplate reader analysis
[15] = system: Human immunodeficiency virus 1; assay: Antiviral activity against HIV-1 3B infected in human MT4 cells assessed as reduction in viral replication incubated for 5 days by MTT assay; format: functional, organism-based; conditions: Human immunodeficiency virus 1, 3B, MT4, 120 h
[16] = system: Human immunodeficiency virus 1; assay: Antiviral activity against HIV-1 IIIB infected in human MT4 cells assessed as protection against virus induced cytopathic effect; format: functional, organism-based; conditions: Human immunodeficiency virus 1, IIIB
[17] = Half life in rat; format: ADME; conditions: in vivo
[18] = target: Human immunodeficiency virus type 1 integrase (Human immunodeficiency virus 1) (UniProt Q7ZJM1); assay: Inhibition of HIV-1 integrase at 100 uM relative to control

T1 sequence (Q7ZJM1 whole entry): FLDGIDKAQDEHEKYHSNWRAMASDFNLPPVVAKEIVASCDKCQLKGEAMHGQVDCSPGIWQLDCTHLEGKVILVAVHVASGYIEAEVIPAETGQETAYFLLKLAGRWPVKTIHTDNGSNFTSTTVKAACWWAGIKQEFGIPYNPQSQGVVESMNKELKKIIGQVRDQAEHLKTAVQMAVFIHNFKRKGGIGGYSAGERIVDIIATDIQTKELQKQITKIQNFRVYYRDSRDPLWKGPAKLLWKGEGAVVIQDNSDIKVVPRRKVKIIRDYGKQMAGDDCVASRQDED
Sequence of Human immunodeficiency virus type 1 integrase (Human immunodeficiency virus 1) (Q7ZJM1 as listed by the source): as the sequence (Q7ZJM1 whole entry) above

COC(=O)/C(O)=C/C(=O)c1cc2cc3c(cc2n1-c1ccccc1)OCO3
EC50 [1]: 4.29 µM

CCCCCn1c(=O)c(C(=O)Nc2cccc([N+](=O)[O-])c2O)c(O)c2ccccc21
IC50 [2]: 9 µM

CC(C)Oc1ccc(Cc2ccccc2)cc1C(=O)/C=C(\O)C(=O)O
IC50 [2]: < 0.1 µM

O=C(NCc1c(F)cc(F)cc1F)c1cn2c(c(O)c1=O)C(=O)N1[C@H]3CC[C@H](C3)O[C@@H]1C2 [BICTEGRAVIR]
IC50 [3]: 2.4 µM

CC(C)n1ccn2cc(C(=O)NCc3ccc(F)cc3F)c(=O)c(O)c2c1=O
EC50 [4]: 0.05 µM | IC50 [5]: 4.3 µM | IC50 [6]: 4.8 µM | IC50 [7]: 3.8 µM

Cn1cc(-c2ccc3c(c2)OCO3)c2ccc(-c3ccncc3)nc21
CC50 at 48 h [8]: > 200 µM

CC1COC2(C1)[C@H](C)n1cc(C(=O)NCc3ccc(F)cc3F)c(=O)c(O)c1C(=O)C2(C)C (some centres undefined)
IC50 [2]: 0.14 µM

CCOC(=O)c1cc2cc(NC(=O)c3cnccn3)ccc2[nH]1
IC50 [9]: 11.7 µM

O=C(O)/C(O)=C/C(=O)c1nc2ccccc2n1Cc1ccccc1F
EC50 [10]: 40 µM

Cn1c(=O)c(C(=O)O)c(O)c2cc(-c3ccc(F)cc3)ccc21
IC50 [2]: 0.9 µM

CC(C)Cn1ccn2cc(C(=O)NCc3ccc(F)cc3F)c(=O)c(O)c2c1=O
EC50 [4]: 0.06 µM | IC50 [5]: 3.6 µM | IC50 [6]: 4.7 µM | IC50 [7]: 3 µM

C[C@H]1CO[C@@H]2Cn3cc(C(=O)NCc4ccc(F)cc4F)c(=O)c(O)c3C(=O)N12 [CABOTEGRAVIR]
IC50 [3]: 1.8 µM | EC50 [11]: 4.77 µM

COc1ccc2[nH]c(=O)c(CNC3CCCC3)cc2c1
inhibition [12]: 39.9%

CC(C)N1CCn2cc(C(=O)NCc3ccc(F)cc3F)c(=O)c(O)c2C1=O
IC50 [5]: 5 µM | IC50 [6]: 3 µM | IC50 [7]: 1.7 µM

Cc1ccc(CCOc2ccc(-c3c(C)nc(C)c([C@H](OC(C)(C)C)C(=O)O)c3N3CCC(C)(C)CC3)cc2)cc1
bioavailability [13]: 52%

O=C(NCc1ccccc1)C1C(=O)N(O)C(=O)c2ccccc21 (centres undefined)
IC50 [14]: 0.36 µM

[N-]=[N+]=NCc1cccc(C(=O)CC(=O)C(=O)O)c1
IC50 [15]: 2.1 µM

O=C(O)/C(O)=C/C(=O)c1cc2ccccc2n1-c1ccccc1
EC50 [1]: 4.29 µM

CC1COC2(C1)Cn1cc(C(=O)NCc3cccc(Cl)c3F)c(=O)c(O)c1C(=O)C2(C)C (centres undefined)
IC50 [2]: 1.23 µM

O=C(CCC(=O)/C(O)=C/C(=O)c1cccc(Cc2ccccc2F)c1)/C(O)=C/C(=O)c1cccc(Cc2ccccc2F)c1
EC50 [16]: 0.2 µM

O=C(O)/C(O)=C/C(=O)c1ccc(OCc2ccccc2COc2cccc(C(=O)/C=C(\O)C(=O)O)c2)cc1
EC50 [1]: 39 µM

CC(C)Oc1ccc(Cc2ccccc2)cc1C(=O)CC(=O)C(=O)O
IC50 [2]: 0.1 µM

[N-]=[N+]=NCc1ccc(C(=O)CC(=O)C(=O)O)cc1CN=[N+]=[N-]
IC50 [15]: 14.3 µM

O=C(O)c1cc2ccc(Nc3ccc(F)cc3)cc2[nH]1
IC50 [9]: 3.11 µM

CCOC(=O)c1[nH]c2ccccc2c1Nc1ccccc1OC
IC50 [9]: 10.1 µM

N#CCCc1cccc(C(=O)CC(=O)C(=O)O)c1
IC50 [15]: > 25 µM

O=C(O)/C(O)=C/C(=O)c1cccc(Cc2ccccc2F)c1
EC50 [16]: 0.02 µM

CC1COC2(C1)Cn1cc(C(=O)NCc3ccc(F)cc3F)c(=O)c(O)c1C(=O)C2(C)C (centres undefined)
IC50 [2]: 0.17 µM

C[C@@H]1CCO[C@H]2Cn3cc(C(=O)NCc4ccc(F)cc4F)c(=O)c(O)c3C(=O)N12 [DOLUTEGRAVIR]
half-life [17]: 6.2 h

O=C(O)c1cc2ccccc2[nH]1 [INDOLE-2-CARBOXYLIC ACID]
IC50 [9]: 32.3 µM

NNC(=O)c1ncn(-c2ccc(Br)cc2)c1-c1cccc(F)c1
inhibition [18]: 50%

COc1ccc(C(=O)CC(=O)C(=O)O)cc1CN=[N+]=[N-]
IC50 [15]: > 25 µM

O=C(O)/C(O)=C/C(=O)c1ccc(C(c2cccc(C(=O)/C=C(\O)C(=O)O)c2)c2ccccc2F)cc1 (centres undefined)
EC50 [1]: 17 µM

[N-]=[N+]=NCc1cc(CN=[N+]=[N-])cc(C(=O)CC(=O)C(=O)O)c1
IC50 [15]: 5 µM

COC(=O)C1C(=O)N(O)C(=O)c2ccccc21 (centres undefined)
IC50 [14]: 0.06 µM

COc1ccc(-c2ccc3c(-c4ccc(F)cc4F)cn(C)c3n2)cc1
CC50 at 48 h [8]: 49.3 µM

O=C(O)c1ccc2ccc(/C=C/c3cc(O)c(O)c(O)c3)nc2c1O
IC50 [2]: 1.2 µM

O=C(O)c1[nH]c2ccc([N+](=O)[O-])cc2c1COCc1ccc(C(F)(F)F)cc1
IC50 [9]: 10.5 µM

O=C(NCc1ccc(O)c(O)c1)c1ccc2ccc(C(=O)O)c(O)c2n1
IC50 [2]: 1 µM

O=c1cc(-c2ccc(O)c(O)c2)oc2cc(O[C@@H]3O[C@H](CO)[C@@H](O)[C@H](O)[C@H]3OS(=O)(=O)O)cc(O)c12
IC50 [2]: 0.4 µM
